Reference: ChEMBL document CHEMBL5338751, “Discovery of the First-in-Class Intestinal Restricted FXR and FABP1 Dual Modulator ZLY28 for the Treatment of Nonalcoholic Fatty Liver Disease” (J Med Chem, 2023)
Activity calls are given as the source filed them. The rule behind the calls is not given here.

Tests used:
[1] = Subacute toxicity in ICR mouse assessed as changes in serum TBA level at 500 mg/kg/day, po administered for 14 days; format: organism-based; settings: in vivo, 336 h, time 14 day
[2] = molecular target: T1, Peroxisome proliferator-activated receptor gamma (Homo sapiens, UniProt P37231); assay: Agonist activity at PPARgamma (unknown origin) transfected in HEK293 cells incubated for 18 hrs by renilla/firefly based dual-glo luciferase assay; format: cell-based
T1 sequence (P37231 whole entry): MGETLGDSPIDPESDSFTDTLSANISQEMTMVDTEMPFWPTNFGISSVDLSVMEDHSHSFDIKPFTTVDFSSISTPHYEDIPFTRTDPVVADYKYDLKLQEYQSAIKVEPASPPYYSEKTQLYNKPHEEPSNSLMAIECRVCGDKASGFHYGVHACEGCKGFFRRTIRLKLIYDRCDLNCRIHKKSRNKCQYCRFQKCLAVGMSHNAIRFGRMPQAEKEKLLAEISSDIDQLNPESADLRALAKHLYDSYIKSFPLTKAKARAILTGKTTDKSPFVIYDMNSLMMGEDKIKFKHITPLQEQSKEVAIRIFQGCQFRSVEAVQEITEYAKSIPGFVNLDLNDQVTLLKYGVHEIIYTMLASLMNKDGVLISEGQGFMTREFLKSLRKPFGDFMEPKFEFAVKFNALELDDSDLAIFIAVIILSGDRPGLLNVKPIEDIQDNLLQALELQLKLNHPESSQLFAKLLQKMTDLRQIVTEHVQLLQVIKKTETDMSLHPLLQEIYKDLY

Mus musculus [3] = assay: Antioxidant activity in western diet and CCl4-induced nonalcoholic steatohepatitis C57BL/6 mouse model assessed as increase in SOD level at 20 mg/kg, po administered for 12 weeks starting from week 8 and change in dose for every 5 days; format: functional, organism-based; settings: time 4.0 weeks
Mus musculus [4] = assay: Anti-NASH activity in western diet and CCl4-induced nonalcoholic steatohepatitis C57BL/6 mouse assessed as reduction in IL6 level at 20 mg/kg, po administered for 12 weeks starting from week 8 and change in dose for every 5 days by ELISA; format: functional, organism-based; settings: time 4.0 weeks
Mus musculus [5] = assay: Anti-NASH activity in western diet and CCl4-induced nonalcoholic steatohepatitis C57BL/6 mouse assessed as reduction in IL-1beta level at 20 mg/kg, po administered for 12 weeks starting from week 8 and change in dose for every 5 days by ELISA; format: functional, organism-based; settings: time 4.0 weeks
[6] = Subacute toxicity in ICR mouse assessed as changes in serum DBIL level at 500 mg/kg/day, po administered for 14 days; format: organism-based; settings: in vivo, 336 h, time 14 day
Bile acid receptor = molecular target: T2, Bile acid receptor (Homo sapiens, UniProt Q96RI1); assay: Agonist activity at FXR (unknown origin) expressed in human HepG2 cells co-transfected with human RXR assessed as luciferase activity incubated for 24 hrs by cell-based luciferase assay
T2 sequence (Q96RI1 whole entry): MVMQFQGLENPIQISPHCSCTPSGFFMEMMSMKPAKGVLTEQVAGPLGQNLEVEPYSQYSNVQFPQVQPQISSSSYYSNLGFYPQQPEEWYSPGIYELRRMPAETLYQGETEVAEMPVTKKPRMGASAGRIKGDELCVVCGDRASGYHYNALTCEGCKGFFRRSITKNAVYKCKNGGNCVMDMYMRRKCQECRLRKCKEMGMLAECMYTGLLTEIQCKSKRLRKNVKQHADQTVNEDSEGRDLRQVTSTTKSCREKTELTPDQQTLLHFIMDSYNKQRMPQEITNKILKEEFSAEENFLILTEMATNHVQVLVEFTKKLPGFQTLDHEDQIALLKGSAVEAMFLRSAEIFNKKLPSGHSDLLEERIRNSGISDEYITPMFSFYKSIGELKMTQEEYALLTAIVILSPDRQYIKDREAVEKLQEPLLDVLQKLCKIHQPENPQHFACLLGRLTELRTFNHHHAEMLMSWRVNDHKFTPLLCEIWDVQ

[7] = Subacute toxicity in ICR mouse assessed as animal death at 500 mg/kg/day, po administered for 14 days; format: organism-based; settings: in vivo, 336 h, time 14 day
[8] = Subacute toxicity in ICR mouse assessed as changes in body weight at 500 mg/kg/day, po administered for 14 days; format: organism-based; settings: in vivo, 336 h, time 14 day
[9] = Metabolic stability in Sprague-Dawley rat liver microsomes assessed as parent compound remaining incubated for 1 hr by LC-MS analysis; format: ADME, Microsome; settings: read-out: Stability
[10] = molecular target: T1, Peroxisome proliferator-activated receptor gamma; assay: Inhibition of PPARgamma (unknown origin) transfected in HEK293 cells incubated for 18 hrs in presence of rosiglitazone by dual luciferase reporter assay; format: cell-based
Mus musculus [11] = assay: Anti-NASH activity in western diet and CCl4-induced nonalcoholic steatohepatitis C57BL/6 mouse assessed as reduction in liver weight ratio at 20 mg/kg, po administered for 12 weeks starting from week 8 and change in dose for every 5 days; format: functional, organism-based; settings: time 4.0 weeks
[12] = molecular target: T3, Bile acid receptor (Mus musculus) (UniProt Q60641); assay: In vivo activation of FXR pathway in western diet and CCl4-induced nonalcoholic steatohepatitis C57BL/6 mouse model assessed as upregulation of SHP gene expression in ileum at 20 mg/kg, po administered for 12 weeks starting from week 8 and change in dose for every 5 days by RT-PCR analysis; format: functional, organism-based; settings: time 4.0 weeks
T3 sequence (whole entry): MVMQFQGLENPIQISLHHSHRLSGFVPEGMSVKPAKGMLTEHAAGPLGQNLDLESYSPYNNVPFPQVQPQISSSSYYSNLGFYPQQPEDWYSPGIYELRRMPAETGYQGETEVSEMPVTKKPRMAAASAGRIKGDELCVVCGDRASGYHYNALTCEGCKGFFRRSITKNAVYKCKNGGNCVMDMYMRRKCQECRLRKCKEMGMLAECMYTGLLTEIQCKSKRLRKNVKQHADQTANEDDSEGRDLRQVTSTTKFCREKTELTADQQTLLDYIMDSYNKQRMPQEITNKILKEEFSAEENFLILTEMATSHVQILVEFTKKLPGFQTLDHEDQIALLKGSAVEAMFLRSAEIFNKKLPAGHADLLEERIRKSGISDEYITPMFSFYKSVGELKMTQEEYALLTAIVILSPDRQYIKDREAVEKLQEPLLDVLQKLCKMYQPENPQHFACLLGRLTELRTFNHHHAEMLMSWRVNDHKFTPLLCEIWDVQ

[13] = Subacute toxicity in ICR mouse assessed as abnormal behaviour at 500 mg/kg/day, po administered for 14 days; format: organism-based; settings: in vivo, 336 h, time 14 day
[14] = molecular target: T3, Bile acid receptor (Mus musculus); assay: Activation of FXR in C57BL/6 mouse ileum assessed as upregulation of OST-beta gene expression at 20 mg/kg, po administered for 5 days and measured after 1 hr post final dose by RT-PCR analysis; format: organism-based; settings: filed as activator, time 5.0 day
[15] = Metabolic stability in human liver microsomes assessed as parent compound remaining incubated for 1 hr by LC-MS analysis; format: ADME, Microsome; settings: read-out: Stability
Mus musculus [16] = assay: Anti-NASH activity in western diet and CCl4-induced nonalcoholic steatohepatitis C57BL/6 mouse assessed as reduction in MCP-1 level at 20 mg/kg, po administered for 12 weeks starting from week 8 and change in dose for every 5 days by ELISA; format: functional, organism-based; settings: time 4.0 weeks
Glucocorticoid receptor = Glucocorticoid receptor (Homo sapiens, UniProt P04150); assay: Activation of Gal-DBD and NHRLBD fused GR (unknown origin) transfected in African green monkey CV-1 cells by luciferase reporter assay; format: cell-based
Sequence of Glucocorticoid receptor (P04150 whole entry, the tested form may be a part): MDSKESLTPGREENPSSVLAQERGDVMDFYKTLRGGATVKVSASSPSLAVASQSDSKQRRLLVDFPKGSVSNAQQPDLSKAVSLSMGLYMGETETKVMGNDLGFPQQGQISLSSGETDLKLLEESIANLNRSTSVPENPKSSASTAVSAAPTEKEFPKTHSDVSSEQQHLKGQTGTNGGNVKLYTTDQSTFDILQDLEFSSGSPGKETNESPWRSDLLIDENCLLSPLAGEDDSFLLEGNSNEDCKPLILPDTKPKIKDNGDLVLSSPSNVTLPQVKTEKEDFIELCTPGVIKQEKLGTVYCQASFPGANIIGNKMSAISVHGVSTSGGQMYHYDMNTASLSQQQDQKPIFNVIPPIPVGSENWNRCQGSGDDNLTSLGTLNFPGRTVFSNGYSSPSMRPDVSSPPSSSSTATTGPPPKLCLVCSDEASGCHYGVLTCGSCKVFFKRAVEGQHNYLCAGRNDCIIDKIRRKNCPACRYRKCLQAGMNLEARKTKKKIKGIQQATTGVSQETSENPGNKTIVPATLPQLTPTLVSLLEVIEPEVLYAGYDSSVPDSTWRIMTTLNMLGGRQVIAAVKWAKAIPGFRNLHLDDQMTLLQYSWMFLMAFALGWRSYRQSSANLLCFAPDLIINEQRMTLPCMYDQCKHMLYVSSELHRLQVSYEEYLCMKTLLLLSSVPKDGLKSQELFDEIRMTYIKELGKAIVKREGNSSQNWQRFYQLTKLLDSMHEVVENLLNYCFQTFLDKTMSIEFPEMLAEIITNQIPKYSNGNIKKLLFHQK

O=C(O)C1(c2cccc(-c3ccc(OCc4c(-c5c(Cl)cccc5Cl)noc4C4CC4)cc3)c2)CC1
Activity [1]: Non-Toxic | EC50 [2]: > 10 µM | Activity (Mus musculus [3]): Active | Activity (Mus musculus [4]): Active | Activity (Mus musculus [5]): Active | Activity [6]: Non-Toxic | EC50 (Bile acid receptor): 0.491 µM | Activity [7]: Non-Toxic | Activity [8]: Non-Toxic | remaining at 1 h [9]: 68.6% | IC50 [10]: > 10 µM | Activity (Mus musculus [11]): Active | Activity [12]: Active | Activity [13]: Non-Toxic | Activity [14]: Active | remaining at 1 h [15]: 71.6% | Activity (Mus musculus [16]): Active | EC50 (Glucocorticoid receptor): > 10 µM
